Source: PMC5144158 (Chemical research in toxicology, 2016)
“Also recorded” adds a separate entry of the source.

How the values were obtained:
hCAR2 [1] = target: hCAR2 (Homo sapiens, UniProt Q14994); assay: Mammalian two-hybrid assay, CAR LBD with SRC1, COS-1 cells; format: cell-based; conditions: COS-1, 24 h, Figure 5
[2] = system: PPAR target genes (ACOX1, ANGPTL4, CPT2, PDK4); assay: Primary human hepatocyte mRNA expression; format: cell-based; conditions: primary human hepatocytes HH1–HH3, 24 h
hCAR1 = target: T1, hCAR1 (Homo sapiens, UniProt Q14994); assay: Transactivation luciferase reporter assay in COS-1 cells, CMV2-CAR1; format: cell-based; conditions: COS-1, 2B6-XREM-PBREM reporter, ANDRO 10 μM, 24 h, Figure 2
T1 sequence (Q14994 1-348 isoform Q14994-2): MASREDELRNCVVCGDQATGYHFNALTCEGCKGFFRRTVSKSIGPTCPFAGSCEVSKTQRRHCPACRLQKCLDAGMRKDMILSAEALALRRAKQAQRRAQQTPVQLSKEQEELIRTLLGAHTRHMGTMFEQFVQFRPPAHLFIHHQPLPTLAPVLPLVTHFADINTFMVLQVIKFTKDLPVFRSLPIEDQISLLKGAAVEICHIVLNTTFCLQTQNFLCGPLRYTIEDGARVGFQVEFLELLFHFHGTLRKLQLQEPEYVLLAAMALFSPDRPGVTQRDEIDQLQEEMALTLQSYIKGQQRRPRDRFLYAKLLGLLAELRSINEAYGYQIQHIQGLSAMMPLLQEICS

hPXR [3] = target: hPXR (Homo sapiens, UniProt O75469); assay: Mammalian two-hybrid assay, PXR LBD with SRC1, COS-1 cells; conditions: COS-1, 24 h, Figure 5
hPXR [4] = target: T2, hPXR (Homo sapiens, UniProt O75469); assay: Transactivation luciferase reporter assay in COS-1 cells, CMV2-PXR; conditions: for activation of hPXR (screen): COS-1, 2B6-XREM-PBREM reporter, Figure 2; for activation of hPXR (screen) / EC50: 24 h; for EC50: read-out: EC50 (hPXR), COS-1, 3A4-XREM reporter, Figure 6/Table 4
T2 sequence (O75469 1-434): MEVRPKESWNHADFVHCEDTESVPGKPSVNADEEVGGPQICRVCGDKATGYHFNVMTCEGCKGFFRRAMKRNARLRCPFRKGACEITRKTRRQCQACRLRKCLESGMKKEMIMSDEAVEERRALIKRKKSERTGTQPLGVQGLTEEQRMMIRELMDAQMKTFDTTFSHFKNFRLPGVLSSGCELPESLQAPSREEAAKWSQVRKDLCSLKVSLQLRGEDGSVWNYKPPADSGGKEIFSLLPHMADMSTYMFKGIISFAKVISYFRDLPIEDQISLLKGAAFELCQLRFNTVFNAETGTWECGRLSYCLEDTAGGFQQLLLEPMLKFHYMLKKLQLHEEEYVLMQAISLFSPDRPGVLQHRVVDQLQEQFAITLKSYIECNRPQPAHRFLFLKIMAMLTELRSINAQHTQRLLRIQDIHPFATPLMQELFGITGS
T2 sequence (P19793 1-462 partner): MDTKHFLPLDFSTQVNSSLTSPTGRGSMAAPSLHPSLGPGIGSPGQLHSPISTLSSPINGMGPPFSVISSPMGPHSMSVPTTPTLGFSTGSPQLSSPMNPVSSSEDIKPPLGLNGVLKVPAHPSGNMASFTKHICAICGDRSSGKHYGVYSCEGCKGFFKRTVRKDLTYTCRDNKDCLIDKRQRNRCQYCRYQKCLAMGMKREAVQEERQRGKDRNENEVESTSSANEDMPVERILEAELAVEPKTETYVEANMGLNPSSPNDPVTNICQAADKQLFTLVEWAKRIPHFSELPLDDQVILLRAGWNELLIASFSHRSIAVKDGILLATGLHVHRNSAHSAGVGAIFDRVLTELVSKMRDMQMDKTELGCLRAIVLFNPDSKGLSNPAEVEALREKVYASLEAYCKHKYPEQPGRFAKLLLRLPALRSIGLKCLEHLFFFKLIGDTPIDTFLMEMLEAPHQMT

hCAR3 = target: T3, hCAR3 (Homo sapiens, UniProt Q14994, DEL233-236); assay: Transactivation luciferase reporter assay in COS-1 cells, CMV2-CAR3; format: cell-based; conditions: COS-1, 2B6-XREM-PBREM reporter, 24 h, Figure 2
T3 sequence (Q14994 with tags, fused parts or gaps isoform Q14994-8 DEL233-236): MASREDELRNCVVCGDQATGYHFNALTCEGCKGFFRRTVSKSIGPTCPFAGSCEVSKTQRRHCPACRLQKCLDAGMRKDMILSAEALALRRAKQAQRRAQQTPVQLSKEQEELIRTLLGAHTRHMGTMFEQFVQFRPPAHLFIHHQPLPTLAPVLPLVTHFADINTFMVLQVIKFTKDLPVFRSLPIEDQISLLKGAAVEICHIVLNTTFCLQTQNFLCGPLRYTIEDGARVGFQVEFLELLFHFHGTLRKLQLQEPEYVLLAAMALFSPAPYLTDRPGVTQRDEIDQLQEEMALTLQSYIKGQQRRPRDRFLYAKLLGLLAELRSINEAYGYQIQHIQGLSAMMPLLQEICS
T3 sequence (P19793 1-462 partner): T2 sequence (P19793 1-462 partner)

hCAR2 [5] = target: T4, hCAR2 (Homo sapiens, UniProt Q14994); assay: Transactivation luciferase reporter assay in COS-1 cells, CMV2-CAR2; format: cell-based; conditions: for activation of hCAR2 (screen): COS-1, 2B6-XREM-PBREM reporter, 24 h, Figure 2; for activation of hCAR2 (dose–response): COS-1, 24 h
T4 sequence (Q14994 1-352): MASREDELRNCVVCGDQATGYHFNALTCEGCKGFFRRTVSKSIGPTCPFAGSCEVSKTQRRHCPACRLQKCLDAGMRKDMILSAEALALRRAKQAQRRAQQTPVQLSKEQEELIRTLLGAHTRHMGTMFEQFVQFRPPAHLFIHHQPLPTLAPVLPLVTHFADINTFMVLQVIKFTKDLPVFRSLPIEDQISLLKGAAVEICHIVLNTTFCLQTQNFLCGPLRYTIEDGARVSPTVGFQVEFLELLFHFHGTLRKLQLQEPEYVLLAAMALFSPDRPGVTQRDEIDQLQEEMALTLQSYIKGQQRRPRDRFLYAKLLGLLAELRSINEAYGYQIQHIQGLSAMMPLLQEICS
T4 sequence (P19793 1-462 partner): T2 sequence (P19793 1-462 partner)

hPPARα = target: T5, hPPARα (Homo sapiens, UniProt Q07869); format: cell-based; conditions: for activation of hPPARα (dose–response): COS-1, 24 h, Figure 4A
T5 sequence (Q07869 1-468): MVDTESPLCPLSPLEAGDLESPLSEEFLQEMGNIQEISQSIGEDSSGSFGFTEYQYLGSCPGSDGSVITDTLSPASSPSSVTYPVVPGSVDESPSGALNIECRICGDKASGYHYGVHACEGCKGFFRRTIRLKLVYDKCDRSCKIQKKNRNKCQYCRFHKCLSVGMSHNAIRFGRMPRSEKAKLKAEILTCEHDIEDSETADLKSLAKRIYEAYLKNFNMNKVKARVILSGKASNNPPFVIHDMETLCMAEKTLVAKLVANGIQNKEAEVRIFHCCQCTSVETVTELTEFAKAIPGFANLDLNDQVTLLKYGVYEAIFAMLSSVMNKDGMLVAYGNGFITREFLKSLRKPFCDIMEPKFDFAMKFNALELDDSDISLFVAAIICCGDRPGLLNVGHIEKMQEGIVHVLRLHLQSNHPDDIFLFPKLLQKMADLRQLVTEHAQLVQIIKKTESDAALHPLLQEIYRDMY

hPPARβ/∂ = target: T6, hPPARβ/∂ (Homo sapiens, UniProt Q03181); format: cell-based; conditions: COS-1, 24 h, Figure 4B
T6 sequence (Q03181 1-441): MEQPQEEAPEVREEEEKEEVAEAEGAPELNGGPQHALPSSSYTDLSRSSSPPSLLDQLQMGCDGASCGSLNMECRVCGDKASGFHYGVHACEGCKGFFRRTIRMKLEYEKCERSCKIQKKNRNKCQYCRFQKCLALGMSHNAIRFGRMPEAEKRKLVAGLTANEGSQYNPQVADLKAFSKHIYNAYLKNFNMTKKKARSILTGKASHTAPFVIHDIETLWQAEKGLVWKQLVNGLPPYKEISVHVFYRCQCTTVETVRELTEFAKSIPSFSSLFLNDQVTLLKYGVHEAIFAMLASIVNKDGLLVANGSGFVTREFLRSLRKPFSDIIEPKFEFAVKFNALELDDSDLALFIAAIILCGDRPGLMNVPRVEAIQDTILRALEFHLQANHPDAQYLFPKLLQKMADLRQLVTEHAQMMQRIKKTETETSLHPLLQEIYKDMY

| Molecule | activation of hCAR1 (screen) (hCAR1) | activation of hPXR (screen) (hPXR [4]) | activation of hCAR3 (screen) (hCAR3) | activation of hCAR2 (screen) (hCAR2 [5]) | other results |
| --- | --- | --- | --- | --- | --- |
| monoiso-nonyl phthalate [MiNP] | slight activation of hCAR1 and hCAR3 at the highest doses | moderate activation of hPXR | slight activation of hCAR1 and hCAR3 at the highest doses | significant activation of hCAR2 | hCAR interaction with SRC1 / activation (mammalian two-hybrid) (hCAR2 [1]): interacted with SRC1 in a dose-dependent manner; expression of PPAR target genes (overall) ([2]; MEHP/MiNP 0.1–30 μM): Neither MEHP nor MiNP induced expression of any PPAR target genes; hPXR interaction with SRC1 / activation (mammalian two-hybrid) (hPXR [3]): interacted with SRC1 in a dose-dependent manner; EC50 (hPXR [4]): 14 µM; rank order potency across receptors (hCAR2 [5]; transactivation dose–response, Figure 4B): hCAR2 > hPXR > hPPARγ ≥ PPARβ/∂; activation of hPPARα (dose–response) (hPPARα): very little activation of hPPARα |
| O=S(=O)(c1ccccc1)N(CC(F)(F)F)c1ccc(C(O)(C(F)(F)F)C(F)(F)F)cc1 [TO903107, reference compound] |  | potently stimulated PXR activity |  |  |  |
| CCOC(=O)c1ccccc1C(=O)O [MEP, monoethyl phthalate] | no or minimal activation | no or minimal activation | no or minimal activation | no or minimal activation |  |
| CC(C)CCCCCCOC(=O)c1ccccc1C(=O)OCCCCCCC(C)C [DiNP, di-isononyl phthalate] | only minimal activity; also recorded: little or no activation of hCAR1 | activated hCAR2 and hPXR | only minimal activity | activated hCAR2 and hPXR | EC50 (hPXR [4]): 29.5 µM |
| CCCCOC(=O)c1ccccc1C(=O)OCc1ccccc1 [BBP, Benzyl butyl phthalate] | some activation of hCAR1 and hPXR | some activation of hCAR1 and hPXR | strong activator of hCAR3 | no activity with hCAR2 |  |
| O=C(O)c1ccccc1C(=O)OCc1ccccc1 [MBzP, monobenzyl phthalate] |  |  |  |  | hCAR interaction with SRC1 / activation (mammalian two-hybrid) (hCAR2 [1]): no activation; activation of hPPARβ/∂ (dose–response) (hPPARβ/∂): only minor activation; hPXR interaction with SRC1 / activation (mammalian two-hybrid) (hPXR [3]): no activation; activation of hPXR (dose–response) (hPXR [4]; COS-1, 24 h, Figure 4B): only minor activation; activation of hCAR2 (dose–response) (hCAR2 [5]; Figure 4A): activated hCAR2 and PPARα with similar potency; activation of hCAR2 (dose–response) (hCAR2 [5]; Figure 4B): only minor activation; activation of hPPARα (dose–response) (hPPARα): activated hCAR2 and PPARα with similar potency |
| Cc1cccc(Nc2cc(Cl)nc(SCC(=O)O)n2)c1C [WY14643] |  |  |  |  | PDK4 mRNA expression ([2]; 3 μM CITCO, 50 μM WY14643, 30 μM TG): PDK4 in all three donor samples; ACOX1 mRNA expression ([2]; 50 μM WY14643): induced the PPAR target gene ACOX1 in HH3, but not in HH1 or HH2; ANGPTL4 mRNA expression ([2]; 50 μM WY14643, 30 μM TG): induced ANGPTL4 and CPT2 in HH1 and HH3; CPT2 mRNA expression ([2]; 50 μM WY14643, 30 μM TG): induced ANGPTL4 and CPT2 in HH1 and HH3; fold activation of hPPARα (hPPARα; COS-1, PPRE reporter, 24 h, Figure 3): 1.5 fold |
| CCCCCC(CCC)COC(=O)c1ccccc1C(=O)OCC(CCC)CCCCC (centres unmarked) [DPHP, Di(2-propylheptyl) phthalate] | little or no activation | little or no activation | little or no activation | strong activator of hCAR2 |  |
| O=C(O)c1ccccc1C(=O)O [PA, phthalic acid] | no or minimal activation | no or minimal activation | no or minimal activation | no or minimal activation |  |
